For one assay, the system named is SW620 cells. The assay can be described thus: 3D cell growth inhibition of SW620 cells carrying endogenous KRAS G12V mutation (CellTiter-Glo 3D, GI50). It counts as cell-based. Conditions: Homo sapiens, SW-620, 144 h; SW620 cells, 6 days; read-out: SW620 3D cell growth GI50. As for the experimental part: The following day, the test compound was administered to the cells by using 1000× compound stock solution prepared in DMSO at various concentrations. 1000× compound stock solution was first diluted in culturing medium to 10×, then 10 μL compound medium was added to each well in the cell plates. After administration of the compound, the cells were then incubated at 37° C. for 6 days. Upon completion, the plates were equilibrated at room temperature for approximately 10 minutes. 100 μL of CellTiter-Glo® 3D Reagent (Promega) was added to each well. The plates were then incubated at room temperature for 30 minutes and luminescence was recorded by EnSpire plate reader (PerkinElmer).
Background: ATP-based viability assays read luminescence as a measure of living cells.

The target in another assay is KRAS G12V (Homo sapiens (Human), UniProt P01116, G12V). The assay can be described thus: KRAS G12V degradation in SW620 cells (Western blot, DC50). Conditions: 24 hours. It counts as cell-based. In short, it runs like this: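 KRAS levels were quantified by fluorescent Western blot as percent of the DMSO control after 24 h of compound exposure at 37° C in homozygous KRAS G12V SW620 cells. A four-parameter variable-slope fit of the dose-response gave the half-maximal degradation concentration.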
Chain of KRAS G12V (P01116-2 other isoform, or with tags, fused parts or gaps G12V): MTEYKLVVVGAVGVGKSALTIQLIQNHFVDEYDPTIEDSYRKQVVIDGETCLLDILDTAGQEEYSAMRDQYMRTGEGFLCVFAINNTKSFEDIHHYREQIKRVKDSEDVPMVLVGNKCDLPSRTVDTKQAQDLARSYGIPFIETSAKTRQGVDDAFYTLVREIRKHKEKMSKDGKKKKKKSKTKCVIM

For another assay, the target named is KRAS-G12V/RAF1 (Homo sapiens (Human), UniProt P01116, G12V). The assay can be described thus: KRAS/RAF1 binding inhibition assay (AlphaScreen). In short, it runs like this: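 IC50 comes from variable-slope nonlinear fits of % inhibition (relative to DMSO) against inhibitor concentration. The AlphaScreen signal tracks the interaction of GppNHp-bound KRAS G12V with the RAF1 RBD after 60 min at 4° C with compound in 2% DMSO final.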
Chain of KRAS-G12V/RAF1 (P01116-2 other isoform, or with tags, fused parts or gaps G12V): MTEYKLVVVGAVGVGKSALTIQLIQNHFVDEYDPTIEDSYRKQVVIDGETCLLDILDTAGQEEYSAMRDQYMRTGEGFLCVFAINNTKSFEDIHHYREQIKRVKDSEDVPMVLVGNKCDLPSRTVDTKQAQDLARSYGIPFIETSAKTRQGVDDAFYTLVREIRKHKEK
On the technique in general: Alpha assays give light when donor and acceptor beads are brought close together.

Usually GI50 stands for the concentration at which growth is held to half of that of the control. In general, DC50 refers to the concentration giving 50% degradation. Low values mean a more potent degrader, high ones a less potent degrader. The term IC50 denotes the concentration at which inhibition is half-maximal. A low value points to inhibition by little substance.

Consider `CCc1c(F)ccc2cc(O)cc(-c3ncc4c(NCC5(N(C)C)CCC5)nc(OCC5(CN6CCC7(CC6)CC(CN6CCN(c8ccc9c(c8)CN([C@H]8CCC(=O)NC8=O)C9=O)CC6)C7)CC5)nc4c3F)c12` [Compound 3, (S)-3-(5-(4-((7-((1-(((4-(((1-(dimethylamino)cyclobutyl)methyl)amino)-7-(8-ethyl-7-fluoro-3-hydroxynaphthalen-1-yl)-8-fluoropyrido[4,3-d]pyrimidin-2-yl)oxy)methyl)cyclopropyl)methyl)-7-azaspiro[3.5]nonan-2-yl)methyl)piperazin-1-yl)-1-oxoisoindolin-2-yl)piperidine-2,6-dione], for which the GI50 in the assay on SW620 cells was over 100 nM. Also, the DC50 at KRAS G12V is over 100 nM. At KRAS-G12V/RAF1, this compound showed an IC50 of over 200 nM.
Take `CCc1c(F)ccc2cc(O)cc(-c3ncc4c(N5CCC[C@@](C)(O)C5)nc(OCC5(CN6CC(N7CCC8(CC7)CN(c7ccc9c(c7)CN(C7CCC(=O)NC7=O)C9=O)C8)C6)CC5)nc4c3F)c12` (stereo partly drawn) [Compound 152, 3-(5-(7-(1-((1-(((7-(8-ethyl-7-fluoro-3-hydroxynaphthalen-1-yl)-8-fluoro-4-((R)-3-hydroxy-3-methylpiperidin-1-yl)pyrido[4,3-d]pyrimidin-2-yl)oxy)methyl)cyclopropyl)methyl)azetidin-3-yl)-2,7-diazaspiro[3.5]nonan-2-yl)-1-oxoisoindolin-2-yl)piperidine-2,6-dione]: the GI50 in the assay on SW620 cells was under 10 nM. At KRAS G12V, this compound yielded a DC50 of under 1 nM. For the same compound, the IC50 at KRAS-G12V/RAF1 is 20 to 200 nM.
In the same order, the values of `CCc1cccc2cc(O)cc(-c3ncc4c(N(C)[C@@H]5C[C@H]5F)nc(OCC5(CN6CCC7(CC6)CC(CN6CCN(c8ccc9c(c8)CN([C@H]8CCC(=O)NC8=O)C9=O)CC6)C7)CC5)nc4c3F)c12` [Compound 27, (S)-3-(5-(4-((7-((1-(((7-(8-ethyl-3-hydroxynaphthalen-1-yl)-8-fluoro-4-(((1R,2R)-2-fluorocyclopropyl)(methyl)amino)pyrido[4,3-d]pyrimidin-2-yl)oxy)methyl)cyclopropyl)methyl)-7-azaspiro[3.5]nonan-2-yl)methyl)piperazin-1-yl)-1-oxoisoindolin-2-yl)piperidine-2,6-dione] are 10 to 100 nM, 1 to 10 nM and over 200 nM.
For `CCc1c(F)ccc2cc(O)cc(-c3ncc4c(N5CCC[C@@](C)(O)C5)nc(OCC5(CN6CC7(CCN(C8CCN(c9ccc%10c(c9)CN(C9CCC(=O)NC9=O)C%10=O)CC8)CC7)C6)CC5)nc4c3F)c12` (stereo partly drawn) [Compound 166, 3-(5-(4-(2-((1-(((7-(8-ethyl-7-fluoro-3-hydroxynaphthalen-1-yl)-8-fluoro-4-((R)-3-hydroxy-3-methylpiperidin-1-yl)pyrido[4,3-d]pyrimidin-2-yl)oxy)methyl)cyclopropyl)methyl)-2,7-diazaspiro[3.5]nonan-7-yl)piperidin-1-yl)-1-oxoisoindolin-2-yl)piperidine-2,6-dione], the concentration for 50% growth inhibition (GI50) in the assay with SW620 cells was over 100 nM. At KRAS G12V, this compound showed a 50% degradation concentration (DC50) of 1 to 10 nM. At KRAS-G12V/RAF1, this compound came in with a 50% inhibitory concentration (IC50) of under 20 nM.
For `C[C@@]1(O)CCCN(c2nc(OCC3(CN4CCC5(CC4)CC(CN4CCN(c6ccc7c(c6)CN([C@H]6CCC(=O)NC6=O)C7=O)CC4)C5)CC3)nc3c(F)c(-c4cc(O)cc5cccc(Cl)c45)ncc23)C1` [Compound 129, (S)-3-(5-(4-((7-((1-(((7-(8-chloro-3-hydroxynaphthalen-1-yl)-8-fluoro-4-((R)-3-hydroxy-3-methylpiperidin-1-yl)pyrido[4,3-d]pyrimidin-2-yl)oxy)methyl)cyclopropyl)methyl)-7-azaspiro[3.5]nonan-2-yl)methyl)piperazin-1-yl)-1-oxoisoindolin-2-yl)piperidine-2,6-dione], in the assay on SW620 cells, the GI50 was in the range of 10 to 100 nM. Besides, at KRAS G12V, the half-maximal degradation concentration (DC50) is under 1 nM. Besides, on KRAS-G12V/RAF1, the IC50 was in the range of 20 to 200 nM.
For the compound `CCc1cccc2cc(O)cc(-c3ncc4c(N5CCC[C@@](C)(O)C5)nc(OCC5(CN6CCC7(CC6)CC(N6CCN(c8ccc9c(c8)C(=O)N(C8CCC(=O)NC8=O)C9=O)CC6)C7)CC5)nc4c3F)c12` (stereo partly drawn) [Compound 31, 2-(2,6-dioxopiperidin-3-yl)-5-(4-(7-((1-(((7-(8-ethyl-3-hydroxynaphthalen-1-yl)-8-fluoro-4-((R)-3-hydroxy-3-methylpiperidin-1-yl)pyrido[4,3-d]pyrimidin-2-yl)oxy)methyl)cyclopropyl)methyl)-7-azaspiro[3.5]nonan-2-yl)piperazin-1-yl)isoindoline-1,3-dione], the 50% growth inhibitory concentration (GI50) in the assay on SW620 cells was under 10 nM. Further, the DC50 on KRAS G12V is 1 to 10 nM. In addition, the IC50 on KRAS-G12V/RAF1 is 20 to 200 nM.
In the same order, the values of `CCc1c(F)ccc2cc(O)cc(-c3ncc4c(N5CCC[C@@](C)(O)C5)nc(OCC5(CN6CC7(CCC(CN8CCN(c9ccc%10c(c9)CN([C@H]9CCC(=O)NC9=O)C%10=O)CC8)CC7)C6)CC5)nc4c3F)c12` [Compound 126, (3S)-3-[5-[4-[[2-[[1-[[7-(8-ethyl-7-fluoro-3-hydroxy-1-naphthyl)-8-fluoro-4-[(3R)-3-hydroxy-3-methyl-1-piperidyl]pyrido[4,3-d]pyrimidin-2-yl]oxymethyl]cyclopropyl]methyl]-2-azaspiro[3.5]nonan-7-yl]methyl]piperazin-1-yl]-1-oxo-isoindolin-2-yl]piperidine-2,6-dione] are under 10 nM, 1 to 10 nM and 20 to 200 nM.
`C#Cc1c(F)ccc2cc(N)cc(-c3ncc4c(N5CCC[C@@](C)(O)C5)nc(OCC5(CN6CCC(CN7CCN(c8ccc9c(c8)CN([C@H]8CCC(=O)NC8=O)C9=O)CC7)CC6)CC5)nc4c3F)c12` [Compound 118, (S)-3-(5-(4-((1-((1-(((7-(3-amino-8-ethynyl-7-fluoronaphthalen-1-yl)-8-fluoro-4-((R)-3-hydroxy-3-methylpiperidin-1-yl)pyrido[4,3-d]pyrimidin-2-yl)oxy)methyl)cyclopropyl)methyl)piperidin-4-yl)methyl)piperazin-1-yl)-1-oxoisoindolin-2-yl)piperidine-2,6-dione]: in the assay on SW620 cells, the GI50 was over 100 nM. This compound also showed a DC50 at KRAS G12V of over 100 nM. This compound had an IC50 on KRAS-G12V/RAF1 of over 200 nM.
Turning to `CCc1c(F)ccc2cc(O)cc(-c3ncc4c(N5CCC[C@@](C)(O)C5)nc(OCC5(CN6CCN(C7CC8(C7)CN(c7ccc9c(c7)CN(C7CCC(=O)NC7=O)C9=O)C8)CC6)CC5)nc4c3F)c12` (stereo partly drawn) [Compound 161, 3-(5-(6-(4-((1-(((7-(8-ethyl-7-fluoro-3-hydroxynaphthalen-1-yl)-8-fluoro-4-((R)-3-hydroxy-3-methylpiperidin-1-yl)pyrido[4,3-d]pyrimidin-2-yl)oxy)methyl)cyclopropyl)methyl)piperazin-1-yl)-2-azaspiro[3.3]heptan-2-yl)-1-oxoisoindolin-2-yl)piperidine-2,6-dione], in the assay with SW620 cells, the GI50 was under 10 nM. Also, the half-maximal degradation concentration (DC50) on KRAS G12V was under 1 nM. This compound had a 50% inhibitory concentration (IC50) at KRAS-G12V/RAF1 of 20 to 200 nM.
As for `CCc1cccc2cc(O)cc(-c3ncc4c(N5CCCOCC5)nc(OCC5(CN6CCC(CN7CCN(c8ccc9c(c8)CN([C@H]8CCC(=O)NC8=O)C9=O)CC7)CC6)CC5)nc4c3F)c12` [Compound 110, (S)-3-(5-(4-((1-((1-(((7-(8-ethyl-3-hydroxynaphthalen-1-yl)-8-fluoro-4-(1,4-oxazepan-4-yl)pyrido[4,3-d]pyrimidin-2-yl)oxy)methyl)cyclopropyl)methyl)piperidin-4-yl)methyl)piperazin-1-yl)-1-oxoisoindolin-2-yl)piperidine-2,6-dione], the GI50 with SW620 cells is over 100 nM. This compound had a half-maximal degradation concentration (DC50) at KRAS G12V of over 100 nM. The compound also gave an IC50 at KRAS-G12V/RAF1 of over 200 nM.
Take `CCc1c(F)ccc2cc(O)cc(-c3ncc4c(N5CCC[C@@](C)(O)C5)nc(OCC5(CN6CC(N7CC8(CCN(c9ccc%10c(c9)CN(C9CCC(=O)NC9=O)C%10=O)CC8)C7)C6)CC5)nc4c3F)c12` (stereo partly drawn) [Compound 144, 3-(5-(2-(1-((1-(((7-(8-ethyl-7-fluoro-3-hydroxynaphthalen-1-yl)-8-fluoro-4-((R)-3-hydroxy-3-methylpiperidin-1-yl)pyrido[4,3-d]pyrimidin-2-yl)oxy)methyl)cyclopropyl)methyl)azetidin-3-yl)-2,7-diazaspiro[3.5]nonan-7-yl)-1-oxoisoindolin-2-yl)piperidine-2,6-dione]: the GI50 in the assay with SW620 cells was under 10 nM. In addition, the 50% degradation concentration (DC50) on KRAS G12V is under 1 nM. On KRAS-G12V/RAF1, this compound yielded a concentration for half-maximal inhibition (IC50) of under 20 nM.
In the same order, the values of `CCc1cccc2cc(O)cc(-c3ncc4c(N5CCC[C@@](C)(O)C5)nc(OCC5(CN6CCC(CN7CC8(CCN(c9ccc%10c(c9)CN(C9CCC(=O)NC9=O)C%10=O)CC8)C7)CC6)CC5)nc4c3F)c12` (stereo partly drawn) [Compound 19, 3-(5-(2-((1-((1-(((7-(8-ethyl-3-hydroxynaphthalen-1-yl)-8-fluoro-4-((R)-3-hydroxy-3-methylpiperidin-1-yl)pyrido[4,3-d]pyrimidin-2-yl)oxy)methyl)cyclopropyl)methyl)piperidin-4-yl)methyl)-2,7-diazaspiro[3.5]nonan-7-yl)-1-oxoisoindolin-2-yl)piperidine-2,6-dione] are 10 to 100 nM, 1 to 10 nM and 20 to 200 nM.

Values taken from patent publication US20250092039A1, “GLUTARIMIDE-CONTAINING PAN-KRAS-MUTANT DEGRADER COMPOUNDS AND USES THEREOF” (Tiger Biotherapeutics Inc., priority 2022, published 2025).
